The nature of series [1]: Approximate solubility, visually estimated by solvent aliquot addition. Format: physicochemical. The following applies: ambient temperature; for solubility: thermodynamic from solid. The procedure:
A lot of the compound of formula (I) containing a mixture of Forms A and B was used for this study. Measured aliquots of a variety of solvents were added to weighed amounts of the material with sonication until the solution appeared clear or the maximum volume of the vial was reached. Solubility was calculated based on the total solvent used to give a solution. […] Values are rounded to the nearest whole number. […] If dissolution occurred as determined by the visual assessment after the addition of the first aliquot, the value is reported as “>”.

Series [2] in a line: Binary competitive interconversion slurry experiments. Particulars: between room temperature and 50° C. Format: physicochemical. As for the experimental part: Alternatively, interconversion experiments were performed to determine the thermodynamic relationship between polymorphs. […] Clarendon Press, Oxford, 2006; and Polymorphism in Pharmaceutical Solids. Brittain, Harry G. ed. Marcek Dekker, Inc. New York. 1999]. […] The choice of solvent affects the kinetics of polymorph conversion and not the thermodynamic relationship between polymorphic forms [Gu, C H., Young, V. Jr., Grant, D J. J. Pharm. Sci. 2001, 90 (11): 1878-1890].
Slurries were prepared at ambient and 50° C. using binary mixtures of Forms A/F, A/E, and E/F. Saturated solutions of the compound of formula (I) were generated in EtOAc or ACN at RT or 50° C. The solutions were filtered and approximately equivalent quantities of two of the polymorphs were added to the solutions. The samples were slurried for several days at the given temperature and the solids were collected by positive pressure filtration, or centrifugation/decantation. The solids were harvested and analyzed by an XRPD.

A short description of series [3]: Physical stability of crystalline forms (XRPD after stress). Format: physicochemical. As for the experimental part:
Physical stability of Form A was investigated.
Physical stability of Form F was investigated.
Physical stability of Form B was investigated.
Physical stability of Form C was investigated.
Because the solids of Form H were originally isolated damp with excess MeOH (see Example 7), an attempt to remove the excess solvent under vacuum (i.e., room temperature for 2 days) was performed.

The nature of series [4]: Dynamic vapor sorption (DVS). Format: physicochemical. As for the experimental part: Automated vapor sorption (VS) data were collected on a Surface Measurement System DVS Intrinsic instrument. Samples were not dried prior to analysis. Sorption and desorption data were collected over a range from 5% to 95% RH at 10% RH increments under a nitrogen purge. The equilibrium criterion used for analysis was less than 0.0100% weight change in 5 minutes with a maximum equilibration time of 3 hours. Data were not corrected for the initial moisture content of the samples. Post-analysis sample was submitted for XRPD analysis.

The nature of series [5]: Physical stability of crystalline forms (XRPD after stress). The following applies: higher temperature (e.g., 178° C.). Format: physicochemical.
The conditions of series [6]: clinical trials, systemic MEK inhibitor; cited from earlier work.
Setting [7] is: 90% RH at ambient temperature over 7 days.

These results are taken from patent publication US20250179062A1, “CRYSTALLINE FORMS OF A PYRROLOPYRIDINE-ANILINE COMPOUND” (NFLECTION THERAPEUTICS, INC., priority 2021, published 2025).

SMILES strings stand for the structures. “Also recorded” adds a separate entry of the source. Where two headings read alike, the source gives them in different places.

In the case of `Cn1c(Nc2ccc(I)cc2F)c(C(=O)NOCCO)c2cccnc21` [Compound of Formula (I)], the solubility in series [1] (aqueous with cosolvent or surfactant or cyclodextrin, 1:1 THF/H2O (v/v) (aw = 1.04), lot containing mixture of Forms A and B, read-out: Solubility) is 11000 µg/mL; in series [1] (aqueous with cosolvent or surfactant or cyclodextrin, 3:1 acetone/H2O (v/v) (aw = 0.85), lot containing mixture of Forms A and B, read-out: Solubility) it was 5000 µg/mL; in series [1] (organic solvent or mixture, ACN, lot containing mixture of Forms A and B, read-out: Solubility) it was 2000 µg/mL; in series [1] (organic solvent or mixture, DCM, lot containing mixture of Forms A and B, read-out: Solubility) it was 6000 µg/mL; in series [1] (organic solvent or mixture, EtOAc, lot containing mixture of Forms A and B, read-out: Solubility), 3000 µg/mL; in series [1] (organic solvent or mixture, EtOH, lot containing mixture of Forms A and B, read-out: Solubility), 3000 µg/mL. The solubility was 11000 µg/mL in series [1] (organic solvent or mixture, MeOH, lot containing mixture of Forms A and B, read-out: Solubility); 29000 µg/mL in series [1] (organic solvent or mixture, THF, lot containing mixture of Forms A and B, read-out: Solubility); 8000 µg/mL in series [1] (organic solvent or mixture, acetone, lot containing mixture of Forms A and B, read-out: Solubility); under 1000 µg/mL in series [1] (organic solvent or mixture, heptane, lot containing mixture of Forms A and B, read-out: Solubility); 1000 to 20000 µg/mL in series [1] (organic solvent or mixture, in acetone, ACN, DCM, EtOAc, EtOH, MeOH, 3:1 v/v acetone/H2O, and 1:1 v/v THF/H2O, read-out: Solubility term); under 1000 µg/mL in series [1] (organic solvent or mixture, toluene, lot containing mixture of Forms A and B, read-out: Solubility). The solubility in series [1] (water, H2O, lot containing mixture of Forms A and B, read-out: Solubility) was under 1000 µg/mL. Also, the Solubility term result in series [1] (in heptane, H2O, and toluene) was “low solubility”.
For `Cn1c(Nc2ccc(I)cc2F)c(C(=O)NOCCO)c2cccnc21` [Form A], in series [2], the “Relative thermodynamic stability of anhydrous forms” value (from here on “Relative thermodynamic stability”) was “most thermodynamically stable form; also recorded: more stable relative to Form E or F”. In addition, the Physical stability result in series [3] (setting [7]) and in series [3] (one (1) day at ambient temperature under vacuum) was “stable” in each case. Moreover, in series [4] (5-95% RH), the Hygroscopicity term result is “limited hygroscopicity”. The “post-DVS XRPD form” value in series [4] (solid after DVS cycle) is “Form A”.
Regarding `Cn1c(Nc2ccc(I)cc2F)c(C(=O)NOCCO)c2cccnc21` [Form B], in series [5], the “Form conversion by in situ variable temperature XRPD (vtXRPD)” value was “converts/crystallizes to anhydrous Form E”. In addition, the figures for the Physical stability entry in series [3] (exposure to 45° C. (elevated temperature) under vacuum) and in series [3] (under vacuum at ambient temperature over 2 days) were “disordered; also recorded: slightly disordered XRPD pattern with additional unidentified peaks” and “stable”, respectively.
Consider `Cn1c(Nc2ccc(I)cc2F)c(C(=O)NOCCO)c2cccnc21` [Form C], for which the Physical stability entry in series [3] (about 42° C. for one day or about 45° C. for three days, under vacuum) is listed as “slightly disordered”.
Consider `Cn1c(Nc2ccc(I)cc2F)c(C(=O)NOCCO)c2cccnc21` [Form E], for which, in series [2], the “Relative thermodynamic stability” value is recorded as “more thermodynamically stable than Form F but less stable than Form A; also recorded: more stable relative to Form F”.
Regarding `Cn1c(Nc2ccc(I)cc2F)c(C(=O)NOCCO)c2cccnc21` [Form F], the “Relative thermodynamic stability” value in series [2] is recorded as “least thermodynamically stable form”. In addition, the Physical stability result in series [3] (setting [7]) and in series [3] (under vacuum at room temperature for 5 days) was “stable” in each case.
For the compound `Cn1c(Nc2ccc(I)cc2F)c(C(=O)NOCCO)c2cccnc21` [Form H], in series [3] (under vacuum, room temperature for 2 days, damp solids with excess MeOH), the Physical stability result is “disordered mixture of Form H and Form A”.
With `O=C(NOC[C@H](O)CO)c1ccc(F)c(F)c1Nc1ccc(I)cc1F` [PD0325901], the Side effects result in series [6] was “one or more neurological side effects associated with ataxia, confusion, and syncope; also recorded: neurological side effects associated with ataxia, confusion, and syncope”.

For orientation: solubility means how much of the substance goes into solution per volume.
